pEC50: −log10 of the molar value.
Key:
[1] = target: human β2-adrenergic receptor (Homo sapiens, UniProt P07550); test: agonist effect on the human β2-adrenergic receptor, cellular cAMP accumulation assay (HTRF); type: cell-based; conditions: recombinant CHO cells; for pEC50: 30 minutes at room temperature, read-out: ECso; for β2 adrenergic receptor agonist activity: summary in words
Text: We then have tested the in vitro activity of (-)-hydroxymatairesinol (two epimers; 7S,8R,8'R and 7R,8R,8'R), (-)(7S,8R,8'R)-hydroxymatairesinol, (+)-lariciresinol, (-)-secoisolariciresinol, knot-wood extracts of Picea abies and Abies alba against β2-adrenergic receptor, in a cellular based assay, according to the Table 1 below (Baker J.G. (2005), Brit. J. Pharmacol., 144: 317). Table 1: Test of the agonist effect of compounds on the human β2-adrenergic receptor
Mammalian recombinant cells (CHO cells) stably expressing human β2-adrenergic receptor were suspended in HBSS buffer (Invitrogen) complemented with 20 mM HEPES (pH 7.4) and 500 µM IBMX, then distributed in microplates at a density of 10^4 cells/well and incubated for 30 min at room temperature in the presence of HBSS (basal control), the test compound or the reference agonist. For stimulated control measurement, separate assay wells contained 100 nM isoproterenol. Following incubation, the cells were lysed and the fluorescence acceptor (D2-labeled cAMP) and fluorescence donor (anti-cAMP antibody labeled with europium cryptate) were added. After 60 min at room temperature, the fluorescence transfer was measured at λex=337 nm and λem=620 and 665 nm using a microplate reader (Rubystar, BMG). The cAMP concentration was determined by dividing the signal measured at 665 nm by that measured at 620 nm (ratio). Results are expressed as a percent of the control response to 100 nM isoproterenol. The standard reference agonist is isoproterenol, which was tested in each experiment at several concentrations to generate a concentration-response curve from which its EC50 value was calculated.
The knot-wood extract for use of the invention as well as the lignans for use of the invention were tested at a concentration of 10^-5 M. Results are presented in Figure 4, and are expressed as a percentage of control agonist response, wherein 100% corresponds to the agonist response measured when cells are treated with 0.1 µM isoproterenol.
Then, we measured the corresponding EC50. EC50 represents the half maximal effective concentration, and refers to the concentration of a compound which induces a response halfway between the baseline and maximum.

TNF-α [2] = test: elastase lung injury model, TNF-α in bronchoalveolar lavage fluid (ELISA); type: in vivo, mice; conditions: elastase group vs control group; HMR 30 mg/kg intratracheal instillation 15 min before elastase; BAL fluid after 24 hours; p < 0.05
Procedure: (§1) Male C57B1/6 WT mice (n=35) weighing between 20 and 25 g and aged of 8 weeks were obtained from Janvier Labs (Saint Berthevin, France) and were housed in the animal facility of the laboratory, with free access to water and food, for at least 1 week before the beginning of the experimentation.
(§2) The mice were randomly divided into six groups (n = 5-6/group). At t=0, mice were submitted to intratracheal instillation with lignan of the invention (HMR with a purity of 95%, 30 mg/kg body wt dissolved in PBS containing 1% DMSO) or with PBS with 1% DMSO. At t=15 min, mice were submitted to instillation either with 30 µl of elastase (1UI diluted in PBS) or 30 µl of LPS (10 µg/ml diluted in PBS) or 30 µl of PBS containing 1% DMSO. Mice were anesthetized with 150 µl of a solution containing xylazine 10% and ketamine 10% and sacrificed after 24 hours, and the bronchoalveolar lavage (BAL) fluid was collected for subsequent analyses.
(§3) Lungs were washed twice with 1ml of PBS then centrifuged at 10,000 rpm at 4°C for 10 min, and the resulting supernatant of the BAL was aliquoted as 210 µl samples and used for TNF-α cytokine protein quantification using an ELISA kit (mouse TNF-alpha DuoSet; R&D Systems Europe, Ltd., France).

TNF-α [3] = test: LPS lung injury model, TNF-α in bronchoalveolar lavage fluid (ELISA); type: in vivo, mice; conditions: LPS group vs control group; HMR 30 mg/kg intratracheal instillation 15 min before LPS; BAL fluid after 24 hours; p < 0.05
Procedure: as §1, §2, §3

TNF-α [4] = test: cigarette smoke-induced lung injury model, TNF-α in bronchoalveolar lavage fluid (ELISA); type: in vivo; conditions: mice exposed to cigarette smoke vs non-treated mice; HMR 30 mg/kg intratracheal instillation daily for 4 days; BAL fluid at day 5; p < 0.05
Procedure: Male C57B1/6 WT mice (n=36) weighting between 20 and 25 g and aged of 9 weeks were obtained from Janvier Labs (Saint Berthevin, France) and were housed in the animal facility of the laboratory, with free access to water and food, for at least 1 week before the beginning of the experimentation.
The mice were randomly divided into six groups (n = 6/group). Mice were submitted to intratracheal instillation with 50 µl lignan of the invention (HMR with a purity of 95%, 30 mg/kg body wt dissolved in PBS containing 5%DMSO) or with PBS with 5% DMSO daily: After 3 hours mice were exposed to ambient air (AA) or to cigarette smoke (CS; 18 cigarettes per hour) for 3 hours.
This procedure was repeated 4 days. Mice were anesthetized with 250 µl of a solution containing xylazine 10% and ketamine 10% and were sacrificed at day 5. The BAL fluid was collected for analyses.
Lungs were washed twice with 1ml of PBS then centrifuged at 10,000 rpm at 4°C for 10 min, and the resulting supernatant of the BAL was aliquoted as 210 µl samples and used for TNF-α cytokine protein quantification using an ELISA kit (mouse TNFalpha DuoSet; R&D Systems Europe, Ltd., France).

Sequence of human β2-adrenergic receptor (P07550 whole entry): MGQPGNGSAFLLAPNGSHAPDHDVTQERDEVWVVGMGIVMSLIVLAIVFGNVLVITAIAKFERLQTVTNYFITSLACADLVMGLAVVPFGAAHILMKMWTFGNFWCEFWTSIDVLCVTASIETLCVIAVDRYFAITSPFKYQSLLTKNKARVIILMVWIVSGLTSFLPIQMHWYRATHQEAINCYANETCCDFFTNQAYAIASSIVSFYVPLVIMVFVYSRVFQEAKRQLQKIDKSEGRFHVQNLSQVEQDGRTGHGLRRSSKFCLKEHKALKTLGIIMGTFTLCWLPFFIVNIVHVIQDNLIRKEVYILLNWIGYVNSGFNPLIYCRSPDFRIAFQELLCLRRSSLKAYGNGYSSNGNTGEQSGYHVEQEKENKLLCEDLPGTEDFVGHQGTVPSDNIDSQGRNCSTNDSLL

pEC50 [1]	Compound	β2 adrenergic receptor agonist activity [1]	level of TNF-α (TNF-α [2])	level of TNF-α (TNF-α [3])	level of TNF-α (TNF-α [4])
5.77	COc1cc(C[C@H]2CO[C@H](c3ccc(O)c(OC)c3)[C@H]2CO)ccc1O [Lari, (+)-lariciresinol]	strong β2 adrenergic receptor agonist activity			
5.82	COc1cc(CC2C(=O)OCC2C(O)c2ccc(O)c(OC)c2)ccc1O (single isomer, unassigned; (-)) [HMR2]	strong β2 adrenergic receptor agonist activity			
5.60	COc1cc(C[C@@H](CO)[C@H](CO)Cc2ccc(O)c(OC)c2)ccc1O [Seco, (-)-Secoisolariciresinol]	strong β2 adrenergic receptor agonist activity			

Compound	pEC50 [1]	β2 adrenergic receptor agonist activity [1]	level of TNF-α (TNF-α [2])	level of TNF-α (TNF-α [3])	level of TNF-α (TNF-α [4])
COc1cc(C[C@H]2C(=O)OC[C@@H]2C(O)c2ccc(O)c(OC)c2)ccc1O (mixture of isomers) [HMR, (-) hydroxymatairesinol (2 epimers: 7S,8R,8'R and 7R,8R,8'R)]	6.46	strong β2 adrenergic receptor agonist activity	significantly reduced	significantly reduced	significant reduced level
